Laboratory results taken from article PMC12314070 (Nature Communications, 2025).
Converted amounts (≈) assume the structure as drawn. Positions of bridges follow the written chain, without caps; N, C: chain ends. Non-standard residues stand in square brackets, D forms with d. Residues, ends and D or L forms follow the SMILES beside them. *: point of attachment. X1 = CC[C@H](C)CCCCC(=O)*; Dab = NCC[C@H](N)C(=O)O

How the values were obtained:
[1] = tested on: E. Coli MG1655-mcr-1; experiment: Neutropenic thigh infection model; assay type: in vivo, mice; details: colistin resistant E. coli thigh infection, 20 mg/kg once daily s.c.
[2] = tested on: A. baumannii BNCC 194496; experiment: MIC assay; assay type: cell-based, Acinetobacter baumannii; details: Table 1, Cip^R
[3] = tested on: A. baumannii BNCC194496-mcr-1; experiment: MIC assay; assay type: cell-based; details: Acinetobacter baumannii, BNCC194496MCR1
[4] = tested on: S. aureus BNCC 186335; experiment: MIC assay; assay type: cell-based; details: Staphylococcus aureus, BNCC186335, Table 1, Azm^R, Pen^R
[5] = tested on: S. aureus USA 300; experiment: MIC assay; assay type: cell-based, Staphylococcus aureus; details: Table 1, Met^R, MDR

In the case of CC[C@H](C)CCCCC(=O)N[C@@H](CCN)C(=O)N[C@H](C(=O)N[C@@H](CCN)C(=O)N[C@H]1CCNC(=O)[C@H]([C@@H](C)O)NC(=O)[C@H](CCN)NC(=O)[C@H](CCN)NC(=O)[C@H](CC(C)C)NC(=O)[C@@H](CC(C)C)NC(=O)[C@H](CCN)NC1=O)[C@@H](C)O [Colistin] (X1-[Dab]T[Dab][Dab][Dab][dL]L[Dab][Dab]T; lactam 4-C; N-terminus assumed), the “reduction of bacterial burden” value [1] is reported as “no activity”.

CO/N=C(\C(=O)N[C@@H]1C(=O)N2C(C(=O)O)=CCS[C@H]12)c1csc(N)n1 [Ceftizoxime] was tested, and the MIC [2] was 4 µg/mL (≈ 10.4 µM) and the MIC [3] was 4 µg/mL (≈ 10.4 µM).

With CN[C@H](CC(C)C)C(=O)N[C@H]1C(=O)N[C@@H](CC(N)=O)C(=O)N[C@H]2C(=O)N[C@H]3C(=O)N[C@H](C(=O)N[C@H](C(=O)O)c4cc(O)cc(O)c4-c4cc3ccc4O)[C@H](O)c3ccc(c(Cl)c3)Oc3cc2cc(c3O[C@@H]2O[C@H](CO)[C@@H](O)[C@H](O)[C@H]2O[C@H]2C[C@](C)(N)[C@H](O)[C@H](C)O2)Oc2ccc(cc2Cl)[C@H]1O [Vancomycin] the MIC [4] was 0.5 µg/mL (≈ 0.345 µM) and the MIC [5] was 1 µg/mL (≈ 0.69 µM).

COc1cccc(OC)c1C(=O)N[C@@H]1C(=O)N2[C@@H]1SC(C)(C)[C@@H]2C(=O)O [Methicillin] was tested, and the MIC [5] was >64 µg/mL.
